# Source: patent US20120201935A1, “SWEETNESS ENHANCER, SWEETENER COMPOSITIONS, METHODS OF MAKING THE SAME AND CONSUMABLES CONTAINING THE SAME” (NUTRINOVA NUTRITION SPECIALTIES & FOOD INGREDIENTS GMBH, priority 2011, published 2012)
# Entries after “also recorded” stand apart in the source; their conditions may differ.
# Key:
# [1] = system: HEKα15#17 cells (control cell line without sweet receptor); assay: Same calcium assay on the control cell line without sweet receptor; assay type: cell-based; conditions: FIG. 1 grey bars
# Method: (§1) For measurement of human T1R2/T1R3 taste receptor dependent activity a control cell line without sweet receptor based on HEK 293 and a cell line expressing the sweet receptor hT1R2/hT1R3 based on HEK 293, respectively, are seeded into assay plates and labelled with the calcium sensitive fluorescence dye Fluo4-AM in a culture medium. The potential modulators, e.g. the test compound, are added to the control cell line and to the cell line expressing the sweet receptor hT1R2/hT1R3, respectively.
# (§2) A stable cell line based on HEK293 was termed HEKα15#17 served as control for functional Gα-protein and a stable cell line HEKGα15#17R2R3b#8 C6 served as cell line expressing the sweet receptor hT1R2/hT1R3 based on HEKGα15#17.
# (§3) The cells were cultured in DMEM/HG and 10% FCS Gold, 4 mM L-Glutamin, 1.3 mg/ml Geneticin (HEKGα15#17) or the same medium additionally containing 6 μg/ml Blasticidin (HEKGα15#17R2R3b#8 C6). The medium for the assay was DMEM/HG (high glucose, 4.5 g/l glucose, Life Technologies) and 10% FCS Gold, 4 mM L-Glutamin (HEKGα15#17) or DMEM/LG (low glucose, 1 g/l glucose; Life Technologies) and 10% FCS Gold (HEKGα15#17R2R3b#8C6), respectively. 1.3 Evaluation of the sweet receptor modulating activity of rosmarinic acid
# In order to evaluate the sweet receptor modulating activity of rosmarinic acid, rosmarinic acid was added to the cultures in a concentration of 25 μM in a volume of 50 μl. Controls were KH-buffer (Krebs HEPES-buffer: 118 mM NaCl, 4.7 mM KCl, 1.2 mM MgSO4, 1.2 mM KH2PO4, 4.2 mM NaHCO3, 1.3 mM CaCl2, 10 mM Hepes, pH 7.4) either without or with sweetness enhancer.
# Further controls for function of G-protein and receptor were isoproterenol Sigma Aldrich), ionomycin (1 μM, Calbiochem) and ATP (1 μM, Applichem).
# For measurement of human T1R2/T1R3 taste receptor dependent activity, on day 1 of the test procedure the HEKα15#17 cells (control cell line without sweet receptor) and the HEKGα15#17R2R3b#8 C6 cells (cell line expressing the sweet receptor hT1R2/hT1R3), respectively, were transferred to low-glucose medium.
# On day 2 the cells were seeded into assay plates at a density of 25.000 cells/well. Assay plates for fluorescence measurement (black clear bottom 96-cavity plates, Greiner Bio-One) were coated with poly-D-lysine. For direct comparison both cell lines (control cell line without sweet receptor and cell line expressing the sweet receptor hT1R2/hT1R3) were seeded into different cavities of the same assay plate. The plate was placed into the incubator for 48 hours at 37° C., 5% CO2, 100% relative humidity.
# On day 4 the calcium assay was performed. For this assay, the cells were marked with Fluo4-AM in medium and KH-buffer. To each cavity 100 μl KH-Puffer/250 μM sulfinpyrazone/4 μM Fluo4-AM were added gently to 100 μl medium (final concentration of Fluo4-AM=2 μM, stock solution of Fluo4-AM 1 mM in DMSO, excitation at 485 nm, emission at 520 nm, Fisher Scientific, 58239 Schwerte, Germany).
# The plate was placed into the incubator for 1 hour. In the mean time the test substances (“ligands”) were prepared in a separate plate (5 times concentrated, 150 μl/cavity, and then automatically 50 μl/cavity were transferred into the screening cell plate by pipetting robot (FLEX-station, Molecular Devices, Sunnyvale, Calif.).
# The culture medium was carefully removed and 200 μl KH-buffer/250 μM sulfinpyrazone per cavity was added slowly. Cells were left in the FLEX-station for 20 minutes for adaptation, followed by measurement at 37° C.
# In the bar diagram the grey bars (control—without hT1R2/hT1R3) indicate the measured Fluo4-AM fluorescence increase of the respective test compound added to the control cell line, the black bars (assay—with hT1R2/hT1R3) indicate the measured Fluo4-AM fluorescence increase of the respective test compound added to the cell line expressing the sweet receptor hT1R2/hT1R3.
# [2] = molecular target: T1, human taste receptor T1R2/T1R3 (Homo sapiens, UniProt Q7RTX0+Q8TE23); assay: Recombinant human taste receptor T1R2/T1R3 dependent cell based calcium assay (Fluo4-AM), cell line expressing the sweet receptor
# T1 construct: expressed in transfected cells; host or cells: HEK293 stably expressing mouse G-alpha-15 (HEKGα15#17R2R3b#8 C6)
# T1 sequence (Q8TE23 20-839): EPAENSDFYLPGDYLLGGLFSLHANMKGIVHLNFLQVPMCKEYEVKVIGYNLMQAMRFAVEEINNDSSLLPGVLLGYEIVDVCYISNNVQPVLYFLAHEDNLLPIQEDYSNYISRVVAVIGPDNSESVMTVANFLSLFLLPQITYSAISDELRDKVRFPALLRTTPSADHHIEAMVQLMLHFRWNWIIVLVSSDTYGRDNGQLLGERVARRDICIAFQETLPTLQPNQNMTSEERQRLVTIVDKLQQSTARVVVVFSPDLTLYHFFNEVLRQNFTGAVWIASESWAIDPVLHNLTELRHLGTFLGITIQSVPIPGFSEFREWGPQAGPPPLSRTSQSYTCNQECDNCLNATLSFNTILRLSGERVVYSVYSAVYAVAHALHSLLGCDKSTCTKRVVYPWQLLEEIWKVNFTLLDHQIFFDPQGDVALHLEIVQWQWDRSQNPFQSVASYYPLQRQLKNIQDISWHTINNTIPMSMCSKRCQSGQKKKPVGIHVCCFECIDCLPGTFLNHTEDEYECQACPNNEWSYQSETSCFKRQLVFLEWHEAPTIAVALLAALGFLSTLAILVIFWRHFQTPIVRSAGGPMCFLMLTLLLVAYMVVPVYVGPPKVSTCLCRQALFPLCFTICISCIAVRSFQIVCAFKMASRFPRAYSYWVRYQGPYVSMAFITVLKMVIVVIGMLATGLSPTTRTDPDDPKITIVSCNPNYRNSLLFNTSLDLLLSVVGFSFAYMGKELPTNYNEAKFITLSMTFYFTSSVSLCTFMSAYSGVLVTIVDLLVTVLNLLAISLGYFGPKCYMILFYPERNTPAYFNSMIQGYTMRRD
# T1 sequence (Q7RTX0 21-852): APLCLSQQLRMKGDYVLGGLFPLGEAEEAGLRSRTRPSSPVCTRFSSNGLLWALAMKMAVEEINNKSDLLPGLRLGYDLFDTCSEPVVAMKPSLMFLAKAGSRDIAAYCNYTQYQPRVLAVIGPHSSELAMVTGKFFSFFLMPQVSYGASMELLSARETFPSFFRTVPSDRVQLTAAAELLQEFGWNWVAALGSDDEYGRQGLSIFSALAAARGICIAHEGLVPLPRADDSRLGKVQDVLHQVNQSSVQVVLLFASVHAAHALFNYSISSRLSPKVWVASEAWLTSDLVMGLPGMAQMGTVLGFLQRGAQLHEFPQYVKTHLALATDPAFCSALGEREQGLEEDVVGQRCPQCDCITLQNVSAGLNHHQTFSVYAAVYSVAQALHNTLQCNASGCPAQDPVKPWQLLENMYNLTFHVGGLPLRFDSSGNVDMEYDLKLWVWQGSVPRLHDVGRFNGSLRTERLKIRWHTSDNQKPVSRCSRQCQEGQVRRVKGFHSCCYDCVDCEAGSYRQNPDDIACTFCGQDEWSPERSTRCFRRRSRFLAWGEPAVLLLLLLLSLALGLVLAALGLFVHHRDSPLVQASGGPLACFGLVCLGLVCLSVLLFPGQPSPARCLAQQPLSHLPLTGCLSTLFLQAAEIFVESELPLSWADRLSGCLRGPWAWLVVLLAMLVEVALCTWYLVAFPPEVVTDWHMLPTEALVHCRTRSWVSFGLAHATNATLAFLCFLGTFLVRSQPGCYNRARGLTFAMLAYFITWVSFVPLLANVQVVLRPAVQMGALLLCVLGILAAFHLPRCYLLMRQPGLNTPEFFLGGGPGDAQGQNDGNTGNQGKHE
# Method: as §1, §2
# as §3, with “1.3 Evaluation of the sweet receptor modulating activity of rosmarinic acid” left out
# On day 2 the cells were seeded into assay plates at a density of 25.000 cells/well. Assay plates for fluorescence measurement (black clear bottom 96-cavity plates, Greiner Bio-One) were coated with poly-D-lysine. […]
# [3] = Taste and spit assay with a panel of trained sensory evaluators; assay type: in vivo, human; conditions: 5 panelists
# Description: The taste of a sample of a compound, e.g. rosmarinic acid, with regard to sweetness and/or sweetness enhancing properties, in other embodiments, may be assessed in vivo by using a panel of trained sensory evaluators experienced in the sweet taste estimation procedure, e.g. in the taste and spit assay as described e.g. in Example 2.
# (§4) In these cases, panelists are asked to take a sample of the liquid to be assessed (test substance, e.g. rosmarinic acid) into the mouth and after some time allowed for taste perception to spit the sample out completely. Subsequently, the panelists are asked to rinse their mouth well with water or black tea to reduce any potential carry over effects. The tasting of a sample can be repeated if required.
# In a first descriptive test (qualitative assessment for sweetness) the panelists are asked to taste the quality of single samples (maximum 3 subsequent samples). The individuals of the taste panel are asked to answer the following questions with regard to the quality of taste: 1) does the sample taste sweet?. 2) is there another taste detectable (bitter, sour, salty, umami)?. 3) is there an off- or aftertaste?. 4) is there anything else remarkable about the perception of the sample?
# In the next step (assessment of sweetness enhancing, e.g. fructose enhancing, features) the panelists are asked to answer questions in a pairwise comparison test to determine the enhancement of sweet taste of the test substance with fructose relative to fructose only. Again the panelists are given samples. Two samples are prepared for direct comparison regarding sweetness. One sample contains fructose in a solvent and the other sample additionally contains the test substance. Designation of the samples with A and B is randomized and is decoded after the taste procedure. The questions to be answered are: 1) does one sample taste sweeter than the other?, 2) if so, which one?, 3) are there any other differences in the taste between the two samples? The result of the taste and spit assay is a qualitative evaluation of the differences between the two samples.
# The taste of a sample of rosmarinic acid with regard to sweetness and fructose enhancing features was assessed by using a panel of trained sensory evaluators experienced in the sweet taste estimation procedure. 5 individuals were asked to taste the quality of single samples of 10 ml volume.
# as §4, with “Panelists were” for “In these cases, panelists are”, “(20 μM test substance” for “(test substance, e.g.”, “acid in 0.5% ethanol)” for “acid)”, “were” for “are”, “could” for “can”, “required. […]” for “required.”
# [4] = test compound without added enhancer/fructose, sodium cyclamate 30 mM, ATP 1 μM, ionomycin 1 μM, fructose 20 mM, rosmarinic acid 25 μM
# [5] = 20 μM with 4% fructose in 0.5% ethanol
smiles,measurement,setting,value
Nc1ncnc2c1ncn2[C@@H]1O[C@H](COP(=O)(O)OP(=O)(O)OP(=O)(O)O)[C@@H](O)[C@H]1O [ATP],Fluo4-AM fluorescence increase (activation) of the control cell line,[1]; [4],activate
O=C(CO)[C@@H](O)[C@H](O)[C@H](O)CO [fructose],Fluo4-AM fluorescence increase (activation) of the control cell line,[1]; [4],does neither activate
C[C@H](CCC(=O)O)C[C@H](C)C[C@H](C)C(=O)/C=C(\O)[C@H](C)C[C@H](C)C/C=C/[C@@H](C)[C@@H](O)[C@@H](C)[C@@H](O)C[C@@H]1CC[C@@](C)([C@H]2CC[C@@](C)([C@@H](C)O)O2)O1 [ionomycin],Fluo4-AM fluorescence increase (activation) of the control cell line,[1]; [4],activate
CC(C)NCC(O)c1ccc(O)c(O)c1 (stereo not shown) [isoproterenol],Fluo4-AM fluorescence increase (activation) of the control cell line,[1]; [4],activate
O=C(/C=C/c1ccc(O)c(O)c1)O[C@H](Cc1ccc(O)c(O)c1)C(=O)O [rosmarinic acid],Time response in the cell assay,"[2]; measured over ca. 1.5 minutes (86 seconds), FIG. 2",selective stimulation of receptor carrying cells
same,Fructose enhancing activity in the cell based in vitro assay,[2]; rosmarinic acid in the presence of fructose,acting as a fructose enhancer; also recorded: enhances the activity of fructose; also recorded: acts as a fructose enhancer
same,Fluo4-AM fluorescence increase (activation) of the control cell line,[1]; rosmarinic acid 25 μM in the presence of fructose (20 mM),does not activate
same,Fluo4-AM fluorescence increase (activation) of the control cell line,[1]; [4],does not activate
same,Off-taste or other taste (Phase I qualitative assessment),"[3]; 20 μM in 0.5% ethanol, 10 ml",No off-taste or any other taste than sweetness was detected
same,Taste quality of the single sample (Phase I qualitative assessment),"[3]; 20 μM in 0.5% ethanol, 10 ml, ambient temperature",no characteristic intrinsic taste
same,Panelists identifying the sample with 4% fructose plus test substance as sweeter than 4% fructose only (Phase II pairwise comparison),[3]; [5],four
same,Panelists tasting no difference between the two samples (Phase II pairwise comparison),[3]; [5],One
O=S(=O)([O-])NC1CCCCC1.[Na+] [sodium cyclamate],Fluo4-AM fluorescence increase (activation) of the control cell line,[1]; [4],does not activate
